Laboratory results taken from patent publication US20190367448A1, “TREATMENT OF SLEEP-WAKE DISORDERS” (SK Biopharmaceuticals Co., Ltd., priority 2005, published 2019).

Tested on: male adult Sprague Dawley rats
Test: Sleep-wake organization in rats, polysomnographic recording (EEG, EOG, EMG, body movement) for 16 hours after acute i.p. administration
Format: in vivo, rat
Conditions: rats; for Duration (min) Active wake / Duration (min) Deep sleep / Duration (min) Light sleep / Duration (min) Passive wake / Duration (min) REM sleep / Duration (min) intermediate stage / ISWS/TST (%) / Latency (min) ISWS / Latency (min) REM sleep / Latency (min) dSWS / REMS/TST (%) / Shifts (number) Shift from ISWS to AW / Shifts (number) Shift from ISWS to PW / Shifts (number) Shift from REMS to AW / Shifts (number) Shift from REMS to PW / Shifts (number) Shift from dSWS to AW / Shifts (number) Shift from dSWS to PW / Total sleep time TST / dSWS/TST (%): 16 hours recording period; for change in number of active wakefulness epochs / change in number of deep sleep epochs / change in number of light sleep epochs / change in duration of active wakefulness / change in time spent in deep sleep / change in time spent in light sleep / change in number of REM sleep epochs / change in duration of REM sleep: 10 mg/kg
[1] = highest dose tested, 16 hours recording

SMILES: COC(=O)[C@H]1[C@@H](OC(=O)c2ccccc2)C[C@@H]2CC[C@H]1N2C [Cocaine, cocaine]
- Duration (min) Active wake (1 mg/kg i.p.): 331.5 min
- Duration (min) Deep sleep (1 mg/kg i.p.): 162.9 min
- Duration (min) Light sleep (1 mg/kg i.p.): 293.2 min
- Duration (min) Passive wake (1 mg/kg i.p.): 69.8 min
- Duration (min) REM sleep (1 mg/kg i.p.): 84.2 min
- Duration (min) intermediate stage (1 mg/kg i.p.): 6.7 min
- ISWS/TST (%) (1 mg/kg i.p.): 51.8 ± 4.5%
- Latency (min) ISWS (1 mg/kg i.p.): 69.9 ± 51.2 min
- Latency (min) REM sleep (1 mg/kg i.p.): 74.3 ± 12.1 min
- Latency (min) dSWS (1 mg/kg i.p.): 79.3 ± 26.7 min
- REMS/TST (%) (1 mg/kg i.p.): 15.4 ± 0.9%
- Shifts (number) Shift from ISWS to AW (1 mg/kg i.p.): 184.1 number
- Shifts (number) Shift from ISWS to PW (1 mg/kg i.p.): 128.6 number
- Shifts (number) Shift from REMS to AW (1 mg/kg i.p.): 74.5 number
- Shifts (number) Shift from REMS to PW (1 mg/kg i.p.): 17.0 number
- Shifts (number) Shift from dSWS to AW (1 mg/kg i.p.): 10.1 number
- Shifts (number) Shift from dSWS to PW (1 mg/kg i.p.): 66.6 number
- Total sleep time TST (1 mg/kg i.p.): 547.0 ± 51.5 min
- dSWS/TST (%) (1 mg/kg i.p.): 31.2 ± 4.8%
- Duration (min) Active wake (3 mg/kg i.p.): 324.8 min
- Duration (min) Deep sleep (3 mg/kg i.p.): 172.6 min
- Duration (min) Light sleep (3 mg/kg i.p.): 303.2 min
- Duration (min) Passive wake (3 mg/kg i.p.): 66.7 min
- Duration (min) REM sleep (3 mg/kg i.p.): 76.7 min
- Duration (min) intermediate stage (3 mg/kg i.p.): 5.7 min
- ISWS/TST (%) (3 mg/kg i.p.): 53.8 ± 6.3%
- Latency (min) ISWS (3 mg/kg i.p.): 41.5 ± 9.2 min
- Latency (min) REM sleep (3 mg/kg i.p.): 112.0 ± 12.2 min
- Latency (min) dSWS (3 mg/kg i.p.): 68.6 ± 7.6 min
- REMS/TST (%) (3 mg/kg i.p.): 13.8 ± 1.1%
- Shifts (number) Shift from ISWS to AW (3 mg/kg i.p.): 218.5 number
- Shifts (number) Shift from ISWS to PW (3 mg/kg i.p.): 142.2 number
- Shifts (number) Shift from REMS to AW (3 mg/kg i.p.): 56.0 number
- Shifts (number) Shift from REMS to PW (3 mg/kg i.p.): 10.7 number
- Shifts (number) Shift from dSWS to AW (3 mg/kg i.p.): 10.2 number
- Shifts (number) Shift from dSWS to PW (3 mg/kg i.p.): 64.5 number
- Total sleep time TST (3 mg/kg i.p.): 558.2 ± 21.2 min
- dSWS/TST (%) (3 mg/kg i.p.): 31.4 ± 6.1%
- Duration (min) Active wake (10 mg/kg i.p.): 347.3 min
- Duration (min) Deep sleep (10 mg/kg i.p.): 171.9 min
- Duration (min) Light sleep (10 mg/kg i.p.): 294.6 min
- Duration (min) Passive wake (10 mg/kg i.p.): 55.0 min
- Duration (min) REM sleep (10 mg/kg i.p.): 74.7 min
- Duration (min) intermediate stage (10 mg/kg i.p.): 6.3 min
- ISWS/TST (%) (10 mg/kg i.p.): 53.8 ± 4.0%
- Latency (min) ISWS (10 mg/kg i.p.): 101.8 ± 6.9 min
- Latency (min) REM sleep (10 mg/kg i.p.): 192.1 ± 18.5 min
- Latency (min) dSWS (10 mg/kg i.p.): 138.8 ± 8.7 min
- REMS/TST (%) (10 mg/kg i.p.): 13.8 ± 1.5%
- Shifts (number) Shift from ISWS to AW (10 mg/kg i.p.): 201.2 number
- Shifts (number) Shift from ISWS to PW (10 mg/kg i.p.): 132.6 number
- Shifts (number) Shift from REMS to AW (10 mg/kg i.p.): 52.3 number
- Shifts (number) Shift from REMS to PW (10 mg/kg i.p.): 9.2 number
- Shifts (number) Shift from dSWS to AW (10 mg/kg i.p.): 10.4 number
- Shifts (number) Shift from dSWS to PW (10 mg/kg i.p.): 37.6 number
- Total sleep time TST (10 mg/kg i.p.): 547.6 ± 18.2 min
- dSWS/TST (%) (10 mg/kg i.p.): 31.3 ± 4.2%
- change in number of active wakefulness epochs (0.5 h): +111%
- change in number of deep sleep epochs (0.5 h): −100%
- change in number of light sleep epochs (0.5 h): −100%
- change in duration of active wakefulness (0.5 h after treatment): +111%
- change in time spent in deep sleep (0.5 h after treatment): 90%
- change in time spent in light sleep (0.5 h after treatment): −100%
- change in number of REM sleep epochs (0.5 hr): −100%
- change in duration of REM sleep (0.5 hr after administration): −100%
- change in number of active wakefulness epochs (1 h): +500%
- change in duration of active wakefulness (1 h after treatment): +500%
- change in time spent in deep sleep (1 h after treatment): −100%
- change in time spent in light sleep (1 h after treatment): −99%
- change in number of REM sleep epochs (1 hr): −100%
- change in number of deep sleep epochs (1 hr): −100%
- change in number of light sleep epochs (1 hr): −99%
- change in duration of REM sleep (1 hr after administration): −100%
- change in number of deep sleep epochs (1.5 h): −100%
- change in number of light sleep epochs (1.5 h): −87%
- change in number of REM sleep epochs (1.5 hr): −100%
- change in number of active wakefulness epochs (1.5 hr): +312%
- change in duration of REM sleep (1.5 hr after administration): −100%
- change in duration of active wakefulness (1.5 hr after treatment): +312%
- change in time spent in deep sleep (1.5 hr after treatment): −99%
- change in time spent in light sleep (1.5 hr after treatment): −87%
- change in number of active wakefulness epochs (2 h): +119%
- change in duration of active wakefulness (2 h after treatment): +120%
- change in time spent in deep sleep (2 h after treatment): −70%
- change in time spent in light sleep (2 h after treatment): −25%
- change in number of REM sleep epochs (2 hr): −87%
- change in number of deep sleep epochs (2 hr): −38%
- change in number of light sleep epochs (2 hr): −22%
- change in duration of REM sleep (2 hr after administration): −87%
- change in number of REM sleep epochs (2.5 hr): −47%
- change in number of active wakefulness epochs (2.5 hr): +166%
- change in duration of REM sleep (2.5 hr after administration): −47%
- change in duration of active wakefulness (2.5 hr after treatment): +166%
- change in number of REM sleep epochs (3 hr): −78%
- change in number of active wakefulness epochs (3 hr): +77%
- change in duration of REM sleep (3 hr after administration): −78%
- change in duration of active wakefulness (3 hr after treatment): +77%
- decrease in total time spent in REM sleep [1]: −18%
- increase in total duration of active wakefulness [1]: +14%
